# Source: patent US6376426B1, “Herbicidal 3-(heterocycl-1-yl)-uracils” (BASF Aktiengesellschaft, priority 1999, dated 2002)
# Tests used:
# Assay type in all cases: in vivo
# [1] = system: Triticum aestivum; assay: Pre-emergence herbicidal test, TRZAW; conditions: 21 days after spraying
# Method: (§1) To evaluate their herbicidal activity, compounds according to the invention are tested using a representative range of plants:
# (§2) The pre-emergence tests involve spraying a liquid formulation of the compound onto the soil in which the seeds of the plant species mentioned above has recently been sown.
# (§3) The soil used in the tests is a prepared horticultural loam. The formulations used in the tests are prepared from solutions of the test compounds in acetone containing 0.4% by weight of an alkylphenol/ethylene oxide condensate available under the trade mark TRITON X-155. […] In these tests untreated sown soil are used as controls.
# (§4) The herbicidal effects of the test compounds are assessed visually twenty-one days after spraying the foliage and the soil and are recorded on a 0-9 scale. A rating 0 indicates growth as untreated control, a rating 9 indicates death. An increase of 1 unit on the linear scale approximates to a 10% increase in the level of effect.
# [2] = system: Hordeum vulgare; assay: Pre-emergence herbicidal test, HORVW; conditions: 21 days after spraying
# Method: as §1, §2, §3, §4
# [3] = system: Zea mays; assay: Pre-emergence herbicidal test, ZEAMX; conditions: PRE, 21 days after spraying
# Method: as §1, §2, §3, §4
# [4] = system: Glycine max; assay: Pre-emergence herbicidal test, GLXMA; design: key to herbicidal effect (0-9 scale) GLXMA / herbicidal rating GLXMA: A rating 0 indicates growth as untreated control; a rating 9 indicates death; conditions: PRE, 21 days after spraying
# Method: as §1, §2, §3, §4
# [5] = system: Setaria viridis; assay: Pre-emergence herbicidal test, SETVI; conditions: PRE, 21 days after spraying
# Method: as §1, §2, §3, §4
# [6] = system: Echinochloa crus-galli; assay: Pre-emergence herbicidal test, ECHCG; conditions: 21 days after spraying
# Method: as §1, §2, §3, §4
# [7] = system: Alopecurus myosuroides; assay: Pre-emergence herbicidal test, ALOMY; conditions: PRE, 21 days after spraying
# Method: as §1, §2, §3, §4
# [8] = system: Ipomoea hederacea; assay: Pre-emergence herbicidal test, IPOHE; conditions: 21 days after spraying
# Method: as §1, §2, §3, §4
# [9] = system: Galium aparine; assay: Pre-emergence herbicidal test, GALAP; conditions: PRE, 21 days after spraying
# Method: as §1, §2, §3, §4
# [10] = system: Abutilon theophrasti; assay: Pre-emergence herbicidal test, ABUTH; design: key to herbicidal effect (0-9 scale) ABUTH / herbicidal rating ABUTH: A rating 0 indicates growth as untreated control; a rating 9 indicates death; conditions: PRE, 21 days after spraying
# Method: as §1, §2, §3, §4
# [11] = system: Stellaria media; assay: Pre-emergence herbicidal test, STEME; design: key to herbicidal effect (0-9 scale) STEME / herbicidal rating STEME: A rating 0 indicates growth as untreated control; a rating 9 indicates death; conditions: PRE, 21 days after spraying
# Method: as §1, §2, §3, §4
# [12] = system: Matricaria inodora; assay: Pre-emergence herbicidal test, MATIN; conditions: PRE, 21 days after spraying
# Method: as §1, §2, §3, §4
# [13] = system: Triticum aestivum; assay: Post-emergence herbicidal test, TRZAW; design: key to herbicidal effect (0-9 scale) TRZAW: A rating 0 indicates growth as untreated control; a rating 9 indicates death; conditions: POST, 21 days after spraying
# Method: as §1
# (§5) […] After spraying, the plants are placed on greenhouse benches and are cared for in the usual manner, commensurate with conventional greenhouse practices.
# as §4
# [14] = system: Hordeum vulgare; assay: Post-emergence herbicidal test, HORVW; conditions: 21 days after spraying
# Method: as §1
# These acetone solutions are diluted with water and the resulting formulations applied at dosage levels equivalent to about 1000, 800, 400, 250 or 100 g/ha per hectare of test compound per pot. After spraying, the plants are placed on greenhouse benches and are cared for in the usual manner, commensurate with conventional greenhouse practices.
# as §4
# [15] = system: Zea mays; assay: Post-emergence herbicidal test, ZEAMX; conditions: 21 days after spraying
# Method: as §1, §5, §4
# [16] = system: Glycine max; assay: Post-emergence herbicidal test, GLXMA; conditions: 21 days after spraying
# Method: as §1, §5, §4
# [17] = system: Setaria viridis; assay: Post-emergence herbicidal test, SETVI; conditions: POST, 21 days after spraying
# Method: as §1, §5, §4
# [18] = system: Echinochloa crus-galli; assay: Post-emergence herbicidal test, ECHCG; conditions: 21 days after spraying
# Method: as §1, §5, §4
# [19] = system: Alopecurus myosuroides; assay: Post-emergence herbicidal test, ALOMY; conditions: 21 days after spraying
# Method: as §1, §5, §4
# [20] = system: Ipomoea hederacea; assay: Post-emergence herbicidal test, IPOHE; design: key to herbicidal effect (0-9 scale) IPOHE / herbicidal rating IPOHE: A rating 0 indicates growth as untreated control; a rating 9 indicates death; conditions: POST, 21 days after spraying
# Method: as §1, §5, §4
# [21] = system: Galium aparine; assay: Post-emergence herbicidal test, GALAP; conditions: POST, 21 days after spraying
# Method: as §1, §5, §4
# [22] = system: Abutilon theophrasti; assay: Post-emergence herbicidal test, ABUTH; design: key to herbicidal effect (0-9 scale) ABUTH / herbicidal rating ABUTH: A rating 0 indicates growth as untreated control; a rating 9 indicates death; conditions: POST, 21 days after spraying
# Method: as §1, §5, §4
# [23] = system: Stellaria media; assay: Post-emergence herbicidal test, STEME; design: key to herbicidal effect (0-9 scale) STEME / herbicidal rating STEME: A rating 0 indicates growth as untreated control; a rating 9 indicates death; conditions: POST, 21 days after spraying
# Method: as §1, §5, §4
# [24] = system: Matricaria inodora; assay: Post-emergence herbicidal test, MATIN; conditions: POST, 21 days after spraying
# Method: as §1, §5, §4
structure (smiles),measurement,setting,value
Cn1c(C(F)(F)F)cc(=O)n(-n2ccc3ccc([N+](=O)[O-])cc32)c1=O [Example 5],herbicidal effect (0-9 scale) TRZAW,[1]; 250 g/ha,2
same,herbicidal effect (0-9 scale) TRZAW,[1]; 1000 g/ha,5
same,herbicidal effect (0-9 scale) HORVW,[2]; 250 g/ha,4
same,herbicidal effect (0-9 scale) HORVW,[2]; 1000 g/ha,6
same,herbicidal effect (0-9 scale) ZEAMX,[3]; 250 g/ha,4
same,herbicidal effect (0-9 scale) ZEAMX,[3]; 1000 g/ha,5
same,herbicidal effect (0-9 scale) GLXMA,[4]; 250 g/ha,0
same,herbicidal effect (0-9 scale) GLXMA,[4]; 1000 g/ha,0
same,herbicidal effect (0-9 scale) SETVI,[5]; 250 g/ha,8
same,herbicidal effect (0-9 scale) SETVI,[5]; 1000 g/ha,8
same,herbicidal effect (0-9 scale) ECHCG,[6]; 250 g/ha,7
same,herbicidal effect (0-9 scale) ECHCG,[6]; 1000 g/ha,8
same,herbicidal effect (0-9 scale) ALOMY,[7]; 250 g/ha,3
same,herbicidal effect (0-9 scale) ALOMY,[7]; 1000 g/ha,6
same,herbicidal effect (0-9 scale) IPOHE,[8]; 250 g/ha,5
same,herbicidal effect (0-9 scale) IPOHE,[8]; 1000 g/ha,5
same,herbicidal effect (0-9 scale) GALAP,[9]; 250 g/ha,5
same,herbicidal effect (0-9 scale) GALAP,[9]; 1000 g/ha,8
same,herbicidal effect (0-9 scale) ABUTH,[10]; 250 g/ha,5
same,herbicidal effect (0-9 scale) ABUTH,[10]; 1000 g/ha,9
same,herbicidal effect (0-9 scale) STEME,[11]; 250 g/ha,0
same,herbicidal effect (0-9 scale) STEME,[11]; 1000 g/ha,2
same,herbicidal effect (0-9 scale) MATIN,[12]; 250 g/ha,7
same,herbicidal effect (0-9 scale) MATIN,[12]; 1000 g/ha,8
same,herbicidal effect (0-9 scale) TRZAW,[13]; 250 g/ha,0
same,herbicidal effect (0-9 scale) TRZAW,[13]; 1000 g/ha,2
same,herbicidal effect (0-9 scale) HORVW,[14]; 250 g/ha,2
same,herbicidal effect (0-9 scale) HORVW,[14]; 1000 g/ha,4
same,herbicidal effect (0-9 scale) ZEAMX,[15]; 250 g/ha,2
same,herbicidal effect (0-9 scale) ZEAMX,[15]; 1000 g/ha,5
same,herbicidal effect (0-9 scale) GLXMA,[16]; 250 g/ha,6
same,herbicidal effect (0-9 scale) GLXMA,[16]; 1000 g/ha,8
same,herbicidal effect (0-9 scale) SETVI,[17]; 250 g/ha,7
same,herbicidal effect (0-9 scale) SETVI,[17]; 1000 g/ha,8
same,herbicidal effect (0-9 scale) ECHCG,[18]; 250 g/ha,5
same,herbicidal effect (0-9 scale) ECHCG,[18]; 1000 g/ha,8
same,herbicidal effect (0-9 scale) ALOMY,[19]; 250 g/ha,1
same,herbicidal effect (0-9 scale) ALOMY,[19]; 1000 g/ha,4
same,herbicidal effect (0-9 scale) IPOHE,[20]; 250 g/ha,6
same,herbicidal effect (0-9 scale) IPOHE,[20]; 1000 g/ha,9
same,herbicidal effect (0-9 scale) GALAP,[21]; 250 g/ha,4
same,herbicidal effect (0-9 scale) GALAP,[21]; 1000 g/ha,6
same,herbicidal effect (0-9 scale) ABUTH,[22]; 250 g/ha,8
same,herbicidal effect (0-9 scale) ABUTH,[22]; 1000 g/ha,9
same,herbicidal effect (0-9 scale) STEME,[23]; 250 g/ha,0
same,herbicidal effect (0-9 scale) STEME,[23]; 1000 g/ha,5
same,herbicidal effect (0-9 scale) MATIN,[24]; 250 g/ha,4
same,herbicidal effect (0-9 scale) MATIN,[24]; 1000 g/ha,7
